Measured values published in article PMC9863297, “Intermolecular Interactions of Edaravone in Aqueous Solutions of Ethaline and Glyceline Inferred from Experiments and Quantum Chemistry Computations” (Molecules, 2023).
In brackets after ≈: the same amount, converted by molar mass. Like-named read-outs stand apart in the source and are kept apart here.

Test: Edaravone solubility, slurry/shake-flask method with spectrophotometric determination at 243 nm
Format: physicochemical
Conditions: for solubility at 24 h: read-out: cE solubility concentration; for volume of saturated solution containing the recommended 60 mg: solubility at 298.15 K
Description: The first step in obtaining a calibration curve was the preparation of a stock solution of edaravone with a concentration of 2.3 mg/mL. This initial solution was successfully diluted in 10 mL volumetric flasks with methanol and the obtained solutions with decreasing concentrations were measured spectrophotometrically. […] Three separate curves were obtained, and the final curve resulted from averaging. […] The limits of detection (LOD) and quantification (LOQ) were calculated as 5.899∙10^−4 mg/mL and 1.770∙10^−3 mg/mL, respectively.
All of the studied deep eutectic solvents included choline chloride, while the second constituent was either glycerol or ethylene glycol. In order to prepare a DES formulation, choline chloride was mixed with the second compound in different molar ratios in sealed test tubes and placed in a water bath at 363.15 K until the formation of a uniform solution. The obtained DES were either used in their neat form or water was added to them in different proportions in order to form binary systems.
During the next stage, edaravone was added in excess amounts to the test tubes containing both neat DES and binary mixtures, which enabled us to obtain its saturated solutions. Samples prepared in such a manner were placed in an Orbital Shaker Incubator ES-20/60 from Biosan (Riga, Latvia) and incubated for 24 h at different temperatures, namely 298.15 K, 303.15 K, 308.15 K and 313.15 K. The temperature adjustment accuracy was 0.1 K and its variability in a 24 h cycle was ±0.5 K. Apart from heating, all of the samples were mixed at 60 rev/min. The increased viscosity and density of DES systems required the samples to be centrifuged at 1000 rev/min for 5 min with the use of EBA 20 centrifuge from Hettich (Tuttlingen, Germany) enabling the undissolved precipitate to remain on the bottom of the test tubes. Next, the samples were filtered using a syringe equipped with a PTFE syringe filer with 0.22 µm pore size. In order to avoid precipitation, the test tubes, syringes and filters were initially heated at a temperature equal to the one of the handled samples. Finally, small amounts of the obtained filtrate were transferred to test tubes filled with methanol and the diluted samples were measured spectrophotometrically. Additionally, for the determination of the mole fractions of edaravone, the density of the samples was measured by weighing a fixed volume of the solution in 10 mL volumetric flasks.
For determining the solubility of edaravone in the studied systems, the samples prepared, as described above, were measured spectrophotometrically using an A360 spectrophotometer from AOE Instruments (Shanghai, China). The spectra were recorded in the 190 nm to 500 nm wavelength range and 1 nm resolution. Methanol was used for the initial calibration of the spectrophotometer and for the dilution of the measured samples, which was conducted in order for the absorbance values to remain below 2.5. The absorbance values at 243 nm were taken into account and based on the calibration curve prepared earlier, the concentration of edaravone in the samples was determined, followed by its mole fractions. The values were averaged from three separate measurements.

- xE mole fraction solubility (neat DES choline chloride + glycerol (GLE) 1:2 molar ratio (x*GLE = 1.0), 303.15 K): 1606.43 (±50.52) mole fraction ∙10^4
- xE mole fraction solubility (neat DES choline chloride + glycerol (GLE) 1:2 molar ratio (x*GLE = 1.0), 308.15 K): 2151.57 (±64.56) mole fraction ∙10^4
- xE mole fraction solubility (neat DES choline chloride + glycerol (GLE) 1:2 molar ratio (x*GLE = 1.0), 313.15 K): 2991.42 (±64.1) mole fraction ∙10^4
- xE mole fraction solubility (neat DES choline chloride + glycerol (GLE) 1:4 molar ratio, 298.15 K): 926.44 (±23.62) mole fraction ∙10^4
- xE mole fraction solubility (neat DES choline chloride + glycerol (GLE) 1:4 molar ratio, 303.15 K): 1321.28 (±36.17) mole fraction ∙10^4
- xE mole fraction solubility (neat DES choline chloride + glycerol (GLE) 1:4 molar ratio, 308.15 K): 1861.97 (±40.45) mole fraction ∙10^4
- xE mole fraction solubility (neat DES choline chloride + glycerol (GLE) 1:4 molar ratio, 313.15 K): 2739.72 (±65.05) mole fraction ∙10^4
- solubility at 24 h (neat deep eutectic solvent, 25 °C, organic solvent or mixture, thermodynamic from solid, neat DES choline chloride + ethylene glycol (ETA) 1:1 molar ratio, 298.15 K): 190 mg/mL
- solubility at 24 h (neat deep eutectic solvent, 25 °C, organic solvent or mixture, thermodynamic from solid, neat DES choline chloride + ethylene glycol (ETA) 1:2 molar ratio (x*ETA = 1.0), 298.15 K): 303 mg/mL
- solubility at 24 h (neat deep eutectic solvent, 25 °C, organic solvent or mixture, thermodynamic from solid, neat DES choline chloride + ethylene glycol (ETA) 1:4 molar ratio, 298.15 K): 280 mg/mL
- solubility at 24 h (neat deep eutectic solvent, 25 °C, organic solvent or mixture, thermodynamic from solid, neat DES choline chloride + glycerol (GLE) 1:1 molar ratio, 298.15 K): 138 mg/mL
- solubility at 24 h (neat deep eutectic solvent, 30 °C, organic solvent or mixture, thermodynamic from solid, neat DES choline chloride + ethylene glycol (ETA) 1:1 molar ratio, 303.15 K): 252 mg/mL
- solubility at 24 h (neat deep eutectic solvent, 30 °C, organic solvent or mixture, thermodynamic from solid, neat DES choline chloride + ethylene glycol (ETA) 1:2 molar ratio (x*ETA = 1.0), 303.15 K): 392 mg/mL
- solubility at 24 h (neat deep eutectic solvent, 30 °C, organic solvent or mixture, thermodynamic from solid, neat DES choline chloride + ethylene glycol (ETA) 1:4 molar ratio, 303.15 K): 347 mg/mL
- solubility at 24 h (neat deep eutectic solvent, 35 °C, organic solvent or mixture, thermodynamic from solid, neat DES choline chloride + ethylene glycol (ETA) 1:1 molar ratio, 308.15 K): 360 mg/mL
- solubility at 24 h (neat deep eutectic solvent, 35 °C, organic solvent or mixture, thermodynamic from solid, neat DES choline chloride + ethylene glycol (ETA) 1:2 molar ratio (x*ETA = 1.0), 308.15 K): 499 mg/mL
- solubility at 24 h (neat deep eutectic solvent, 35 °C, organic solvent or mixture, thermodynamic from solid, neat DES choline chloride + ethylene glycol (ETA) 1:4 molar ratio, 308.15 K): 467 mg/mL
- solubility at 24 h (neat deep eutectic solvent, 40 °C, organic solvent or mixture, thermodynamic from solid, neat DES choline chloride + ethylene glycol (ETA) 1:1 molar ratio, 313.15 K): 484 mg/mL
- solubility at 24 h (neat deep eutectic solvent, 40 °C, organic solvent or mixture, thermodynamic from solid, neat DES choline chloride + ethylene glycol (ETA) 1:2 molar ratio (x*ETA = 1.0), 313.15 K): 593 mg/mL
- solubility at 24 h (neat deep eutectic solvent, 40 °C, organic solvent or mixture, thermodynamic from solid, neat DES choline chloride + ethylene glycol (ETA) 1:4 molar ratio, 313.15 K): 602 mg/mL
- xE mole fraction solubility (neat water (x*DES = 0.0), 298.15 K): 1.73(±0.01) mole fraction ∙10^4
- xE mole fraction solubility (neat water (x*DES = 0.0), 303.15 K): 1.78(±0.01) mole fraction ∙10^4
- xE mole fraction solubility (neat water (x*DES = 0.0), 308.15 K): 1.84(±0.02) mole fraction ∙10^4
- xE mole fraction solubility (neat water (x*DES = 0.0), 313.15 K): 1.93(±0.01) mole fraction ∙10^4
- mole fraction solubility ratio, ethylene glycol system vs glycerol system (optimal 1:2 composition, average over temperatures): 1.34 times
- volume of saturated solution containing the recommended 60 mg (optimal aqueous composition ETA): 0.14 mL
- volume of saturated solution containing the recommended 60 mg (optimal aqueous composition GLE): 0.18 mL
- solubility increase in optimal binary composition compared to neat DES (systems with ethylene glycol, x*DES = 0.6, average): 17%
- xE mole fraction solubility (water + ETA (ChCl:EG 1:2), x*ETA = 0.2, 298.15 K): 454.10(±5.48) mole fraction ∙10^4
- xE mole fraction solubility (water + ETA (ChCl:EG 1:2), x*ETA = 0.2, 303.15 K): 574.18(±8.89) mole fraction ∙10^4
- xE mole fraction solubility (water + ETA (ChCl:EG 1:2), x*ETA = 0.2, 308.15 K): 742.26(±18.45) mole fraction ∙10^4
- xE mole fraction solubility (water + ETA (ChCl:EG 1:2), x*ETA = 0.2, 313.15 K): 890.33(±10.84) mole fraction ∙10^4
- xE mole fraction solubility (water + ETA (ChCl:EG 1:2), x*ETA = 0.4, 298.15 K): 1353.93(±5.00) mole fraction ∙10^4
- xE mole fraction solubility (water + ETA (ChCl:EG 1:2), x*ETA = 0.4, 303.15 K): 1819.02(±41.45) mole fraction ∙10^4
- xE mole fraction solubility (water + ETA (ChCl:EG 1:2), x*ETA = 0.4, 308.15 K): 2386.29(±27.09) mole fraction ∙10^4
- xE mole fraction solubility (water + ETA (ChCl:EG 1:2), x*ETA = 0.4, 313.15 K): 2954.32(±49.04) mole fraction ∙10^4
- xE mole fraction solubility (water + ETA (ChCl:EG 1:2), x*ETA = 0.5, 298.15 K): 1754.56(±31.02) mole fraction ∙10^4
- xE mole fraction solubility (water + ETA (ChCl:EG 1:2), x*ETA = 0.5, 303.15 K): 2316.25(±38.27) mole fraction ∙10^4
- xE mole fraction solubility (water + ETA (ChCl:EG 1:2), x*ETA = 0.5, 308.15 K): 3073.71(±53.04) mole fraction ∙10^4
- xE mole fraction solubility (water + ETA (ChCl:EG 1:2), x*ETA = 0.5, 313.15 K): 3822.75(±61.93) mole fraction ∙10^4
- xE mole fraction solubility (water + ETA (ChCl:EG 1:2), x*ETA = 0.6, 298.15 K): 1934.93(±34.18) mole fraction ∙10^4
- xE mole fraction solubility (water + ETA (ChCl:EG 1:2), x*ETA = 0.6, 303.15 K): 2552.36(±52.56) mole fraction ∙10^4
- xE mole fraction solubility (water + ETA (ChCl:EG 1:2), x*ETA = 0.6, 308.15 K): 3306.79(±48.29) mole fraction ∙10^4
- xE mole fraction solubility (water + ETA (ChCl:EG 1:2), x*ETA = 0.6, 313.15 K): 3982.72(±70.26) mole fraction ∙10^4
- xE mole fraction solubility (water + ETA (ChCl:EG 1:2), x*ETA = 0.8, 298.15 K): 1713.96(±31.15) mole fraction ∙10^4
- xE mole fraction solubility (water + ETA (ChCl:EG 1:2), x*ETA = 0.8, 303.15 K): 2241.64(±42.78) mole fraction ∙10^4
- xE mole fraction solubility (water + ETA (ChCl:EG 1:2), x*ETA = 0.8, 308.15 K): 2989.20(±42.33) mole fraction ∙10^4
- xE mole fraction solubility (water + ETA (ChCl:EG 1:2), x*ETA = 0.8, 313.15 K): 3720.80(±28.54) mole fraction ∙10^4
- xE mole fraction solubility (water + GLE (ChCl:GL 1:2), x*GLE = 0.2, 298.15 K): 235.51(±9.67) mole fraction ∙10^4
- xE mole fraction solubility (water + GLE (ChCl:GL 1:2), x*GLE = 0.2, 303.15 K): 309.2(±4.30) mole fraction ∙10^4
- xE mole fraction solubility (water + GLE (ChCl:GL 1:2), x*GLE = 0.2, 308.15 K): 435.07(±4.04) mole fraction ∙10^4
- xE mole fraction solubility (water + GLE (ChCl:GL 1:2), x*GLE = 0.2, 313.15 K): 564.61(±7.05) mole fraction ∙10^4
- xE mole fraction solubility (water + GLE (ChCl:GL 1:2), x*GLE = 0.4, 298.15 K): 743.88(±5.92) mole fraction ∙10^4
- xE mole fraction solubility (water + GLE (ChCl:GL 1:2), x*GLE = 0.4, 303.15 K): 1116.64(±2.70) mole fraction ∙10^4
- xE mole fraction solubility (water + GLE (ChCl:GL 1:2), x*GLE = 0.4, 308.15 K): 1444.07(±14.86) mole fraction ∙10^4
- xE mole fraction solubility (water + GLE (ChCl:GL 1:2), x*GLE = 0.4, 313.15 K): 2014.09(±17.34) mole fraction ∙10^4
- xE mole fraction solubility (water + GLE (ChCl:GL 1:2), x*GLE = 0.5, 298.15 K): 1121.47(±10.85) mole fraction ∙10^4
- xE mole fraction solubility (water + GLE (ChCl:GL 1:2), x*GLE = 0.5, 303.15 K): 1673.69(±20.61) mole fraction ∙10^4
- xE mole fraction solubility (water + GLE (ChCl:GL 1:2), x*GLE = 0.5, 308.15 K): 2236.41(±28.00) mole fraction ∙10^4
- xE mole fraction solubility (water + GLE (ChCl:GL 1:2), x*GLE = 0.5, 313.15 K): 3065.17(±55.82) mole fraction ∙10^4
- xE mole fraction solubility (water + GLE (ChCl:GL 1:2), x*GLE = 0.6, 298.15 K): 1450.22(±11.26) mole fraction ∙10^4
- xE mole fraction solubility (water + GLE (ChCl:GL 1:2), x*GLE = 0.6, 303.15 K): 2089.77(±58.10) mole fraction ∙10^4
- xE mole fraction solubility (water + GLE (ChCl:GL 1:2), x*GLE = 0.6, 308.15 K): 2723.73(±61.99) mole fraction ∙10^4
- xE mole fraction solubility (water + GLE (ChCl:GL 1:2), x*GLE = 0.6, 313.15 K): 3567.08(±42.51) mole fraction ∙10^4
- xE mole fraction solubility (water + GLE (ChCl:GL 1:2), x*GLE = 0.8, 298.15 K): 1305.70(±26.15) mole fraction ∙10^4
- xE mole fraction solubility (water + GLE (ChCl:GL 1:2), x*GLE = 0.8, 303.15 K): 1852.98(±39.43) mole fraction ∙10^4
- xE mole fraction solubility (water + GLE (ChCl:GL 1:2), x*GLE = 0.8, 308.15 K): 2525.56(±24.65) mole fraction ∙10^4
- xE mole fraction solubility (water + GLE (ChCl:GL 1:2), x*GLE = 0.8, 313.15 K): 3420.95(±31.16) mole fraction ∙10^4
- solubility at 24 h (water, neat water (x*DES = 0.0), 298.15 K): 1.72 mg/mL (≈ 9.87 mM)
- solubility at 24 h (water, neat water (x*DES = 0.0), 303.15 K): 1.79 mg/mL (≈ 10.3 mM)
- solubility at 24 h (water, neat water (x*DES = 0.0), 308.15 K): 1.87 mg/mL (≈ 10.7 mM)
- solubility at 24 h (water, neat water (x*DES = 0.0), 313.15 K): 1.96 mg/mL (≈ 11.3 mM)
Structure (SMILES): CC1=NN(c2ccccc2)C(=O)C1 [edaravone, 5-methyl-2-phenyl-4H-pyrazol-3-one]
